Data from article PMC2970562, “High-Affinity Inhibitors of Human NAD^+-Dependent 15-Hydroxyprostaglandin Dehydrogenase: Mechanisms of Inhibition and Structure-Activity Relationships” (PLoS ONE, 2010).
Each block holds one molecule with its values, some of them ahead of it.

Tests used:
[1] = molecular target: recombinant human placental 15-PGDH; conditions: cited from earlier work; for potency as inhibitor of 15-PGDH: in words ref 22
[2] = molecular target: T1, human 15-PGDH (Homo sapiens, UniProt P15428); assay: Substrate (PGE2) and cofactor (NAD+) titrations, mechanism of action, global fitting; format: biochemical; conditions: for Competitive (CM), fit residual Chi^2 value / Mixed-mode (MM), fit residual Chi^2 value / Noncompetitive (NM), fit residual Chi^2 value / Uncompetitive (UM), fit residual Chi^2 value: global fitting; for Titration of NAD^+ K m / Titration of NAD^+ V max [µmol/(min×mg)] / Titration of NAD^+ k cat/K m[×10^6] / Titration of NAD^+ k cat[1/sec]: 30 µM PGE2
T1 construct: comprising residues 3–256 of the human HPGD gene (GenBank identifier: 1203982); His6 (GHHHHHH, behind the TEV site) (C, cleaved yes); made in house; host or cells: E. coli BL21(DE3)-R3
T1 sequence (P15428 3-256): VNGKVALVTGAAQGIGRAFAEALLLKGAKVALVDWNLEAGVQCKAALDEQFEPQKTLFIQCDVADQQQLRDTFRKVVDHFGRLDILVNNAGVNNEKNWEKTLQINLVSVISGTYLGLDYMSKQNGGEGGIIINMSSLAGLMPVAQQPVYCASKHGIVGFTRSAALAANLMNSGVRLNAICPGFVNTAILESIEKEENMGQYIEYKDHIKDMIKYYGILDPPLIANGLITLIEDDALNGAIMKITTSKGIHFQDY
Description: Kinetic studies were performed in 100 mM Tris buffer pH 8.0, containing 0.01% Tween-20 and 10 nM 15-PGDH enzyme. […] All inhibitor compounds were dissolved in 10% (v/v) DMSO at varying concentrations from which they were applied at 1∶5 ratio (resulting in a final concentration of 2% (v/v) DMSO in all assays). For each experiment an aliquot of purified enzyme was thawed freshly and pre-diluted to 10 µM in buffer I (5 mM Tris/HCl, pH 8.0, 150 mM NaCl, 0.01% Tween-20). All experiments were performed in white 384-well PCR microplates (Bio-Rad Laboratories, Inc.) in final assay volumes of 20 µL. Twelve-point compound titrations were set up from serially diluted stock solutions in 10% (v/v) DMSO. […] The initial rates recorded in compound titrations were plotted against -log[compound], and non-linear regression (Levenberg-Marquardt) fitting of the dose-response curve to the Hill equation [47] was performed to derive the IC50, using PRISM 5.0 (GraphPad Software, Inc.). For substrate/cofactor titrations, curves with initial rates plotted against the concentration of substrate or cofactor were fitted to the Michaelis-Menten equation, to derive maximal activities, V max, and Michaelis constants, K m. Fitting qualities were judged from the goodness of fit (R^2>0.98).

[3] = molecular target: T1, human 15-PGDH; assay: Differential scanning fluorimetry (DSF), thermal stabilization; format: binding
[4] = molecular target: T2, ALDH1A1 (Homo sapiens, UniProt P00352); assay: Selectivity screen, aldehyde dehydrogenase 1 (PubChem Assay ID 1030); format: biochemical
T2 sequence (P00352 1-501): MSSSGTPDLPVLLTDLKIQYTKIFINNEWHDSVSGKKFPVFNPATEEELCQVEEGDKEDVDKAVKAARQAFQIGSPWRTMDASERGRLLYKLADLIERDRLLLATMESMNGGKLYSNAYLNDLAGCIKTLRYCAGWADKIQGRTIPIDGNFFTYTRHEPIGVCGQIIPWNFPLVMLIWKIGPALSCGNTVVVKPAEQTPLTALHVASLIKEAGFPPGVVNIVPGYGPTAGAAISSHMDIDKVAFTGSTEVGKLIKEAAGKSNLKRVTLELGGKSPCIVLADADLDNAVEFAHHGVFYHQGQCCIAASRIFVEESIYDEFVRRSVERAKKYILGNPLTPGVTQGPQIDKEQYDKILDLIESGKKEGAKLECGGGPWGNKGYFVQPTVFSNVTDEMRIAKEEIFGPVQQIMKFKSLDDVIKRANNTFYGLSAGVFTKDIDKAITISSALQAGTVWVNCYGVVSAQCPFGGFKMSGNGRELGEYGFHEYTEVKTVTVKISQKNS
Description: The list also includes two SDR enzymes, hydroxyacyl dehydrogenase (HADH2, also known as type-10 hydroxysteroid dehydrogenase, HSD17β10; PubChem Assay ID 886) and type-4 hydroxysteroid dehydrogenase (HSD17β4; PubChem Assay ID 893), and a medium-chain dehydrogenase/reductase (MDR), aldehyde dehydrogenase 1 (ALDH1A1; PubChem Assay ID 1030), each of which was tested using a similar experimental protocol to that used for 15-PGDH.

SMILES: CCOC(=O)c1ccc(N=Nc2ccc(O)c(CC(=O)O)c2)cc1 [CAY10397]
- Ki ([1]; human 15-PGDH ref 24): 110 nM

SMILES: CC1(COc2ccc(CC3SC(=O)NC3=O)cc2)CCCCC1 (stereo not drawn) [Ciglitazone]
- IC50 ([1]; recombinant human placental 15-PGDH ref 22): 2700 nM

- Sum-of-squares F-test p, UM vs. MM ([2]; NAD^+ titration): UM vs. MM: p = 0.1058
- Sum-of-squares F-test p, CM vs. MM ([2]; PGE2 titration): CM vs. MM:p = 0.0001
- effect on the V max ([2]; PGE2 titration, in words): almost no effect
- increase in the K m ([2]; PGE2 titration, inhibitor 50 nM): 3 fold
- Preferred mode of inhibition ([2]; PGE2 titration, rejection threshold p = 0.05): MM (MM, mixed-mode inhibition)
- Competitive (CM), fit residual Chi^2 value ([2]; NAD^+ titration): 0.9507
- Mixed-mode (MM), fit residual Chi^2 value ([2]; NAD^+ titration): 0.9841
- Noncompetitive (NM), fit residual Chi^2 value ([2]; NAD^+ titration): 0.9834
- Uncompetitive (UM), fit residual Chi^2 value ([2]; NAD^+ titration): 0.9837
- Competitive (CM), fit residual Chi^2 value ([2]; PGE2 titration): 0.9845
- Mixed-mode (MM), fit residual Chi^2 value ([2]; PGE2 titration): 0.9866
- Noncompetitive (NM), fit residual Chi^2 value ([2]; PGE2 titration): 0.9800
- Uncompetitive (UM), fit residual Chi^2 value ([2]; PGE2 titration): 0.9742
- mode of inhibition with respect to the cofactor NAD+ ([2]; in words): uncompetitive
- mode of inhibition with respect to the substrate PGE2 ([2]; in words): competitive inhibition
- Titration of PGE2 K m ([2]; inhibitor 10.0 nM): 7.5 ± 0.5 µM
- Titration of PGE2 V max[µmol/(min×mg)] ([2]; inhibitor 10.0 nM): 29.0 µmol/min/mg
- Titration of PGE2 k cat/K m[×10^6] ([2]; inhibitor 10.0 nM): 1.8 ×10^6
- Titration of NAD^+ K m ([2]; inhibitor 10.0 nM): 17.0 ± 0.8 µM
- Titration of NAD^+ V max [µmol/(min×mg)] ([2]; inhibitor 10.0 nM): 21.1 µmol/min/mg
- Titration of NAD^+ k cat/K m[×10^6] ([2]; inhibitor 10.0 nM): 0.6 ×10^6
- Titration of NAD^+ k cat[1/sec] ([2]; inhibitor 10.0 nM): 10.3 ± 0.1 s⁻¹
- Titration of PGE2 K m ([2]; inhibitor 50.0 nM): 13.5 ± 1.3 µM
- Titration of PGE2 V max[µmol/(min×mg)] ([2]; inhibitor 50.0 nM): 25.6 µmol/min/mg
- Titration of PGE2 k cat/K m[×10^6] ([2]; inhibitor 50.0 nM): 0.9 ×10^6
- Titration of PGE2 k cat[1/sec] ([2]; inhibitor 50.0 nM): 12.4 ± 0.3 s⁻¹
- Titration of NAD^+ K m ([2]; inhibitor 50.0 nM): 11.1 ± 1.2 µM
- Titration of NAD^+ V max [µmol/(min×mg)] ([2]; inhibitor 50.0 nM): 10.2 µmol/min/mg
- Titration of NAD^+ k cat/K m[×10^6] ([2]; inhibitor 50.0 nM): 0.4 ×10^6
- Titration of NAD^+ k cat[1/sec] ([2]; inhibitor 50.0 nM): 5.0 ± 0.1 s⁻¹
- ΔTm in the presence of NAD+ [3]: 12.2±0.1 °C
- ΔTm in the presence of NADH [3]: 2.9±0.5 °C
- ∆Tm [°C] NAD+ ([3]; with 200 µM NAD+, 1 µM protein, compound 50 or 250 µM, N/A = no unfolding transition observed in DSF): 12.2 °C
- ∆Tm [°C] NADH ([3]; with 200 µM NADH, 1 µM protein, compound 50 or 250 µM, N/A = no unfolding transition observed in DSF): 2.9 °C
- ∆Tm [°C] apo ([3]; without cofactor, 1 µM protein, compound 50 or 250 µM, N/A = no unfolding transition observed in DSF): -1.2 °C
- response against ALDH1A1 ([4]; in words): flat response
- IC50 ([4]; top concentration 57.5 µM, PubChem Assay ID 1030, read-out: IC50/nM ALDH1A1): > 57500 nM
SMILES: N#Cc1ccccc1CSc1nc2cc(Br)c[nH]c-2n1 [Compound 61]

SMILES: COc1ccc2c(c1)c(CC(=O)O)c(C)n2C(=O)c1ccc(Cl)cc1 [indomethacin]
- potency as inhibitor of 15-PGDH [1]: micromolar potencies

SMILES: O=C(O)c1cccnc1Nc1cccc(C(F)(F)F)c1 [niflumic acid]
- potency as inhibitor of 15-PGDH [1]: micromolar potencies

SMILES: CC1=C(CC(=O)O)c2cc(F)ccc2/C1=C\c1ccc([S+](C)[O-])cc1 (stereo not drawn) [sulindac]
- potency as inhibitor of 15-PGDH [1]: micromolar potencies
